From ChEMBL document CHEMBL2073882, “Wild-type p53-mediated induction of rat mdr1b expression by the anticancer drug daunorubicin” (J Biol Chem, 1998)

Target: ATP-dependent translocase ABCB1 (Rattus norvegicus, UniProt P43245)
Assay: TP_TRANSPORTER: RNase protection assay in vitro, rat hepatoma H-4-II-E cells
Format: functional, cell-based

ATP-dependent translocase ABCB1, sequence (P43245 whole entry): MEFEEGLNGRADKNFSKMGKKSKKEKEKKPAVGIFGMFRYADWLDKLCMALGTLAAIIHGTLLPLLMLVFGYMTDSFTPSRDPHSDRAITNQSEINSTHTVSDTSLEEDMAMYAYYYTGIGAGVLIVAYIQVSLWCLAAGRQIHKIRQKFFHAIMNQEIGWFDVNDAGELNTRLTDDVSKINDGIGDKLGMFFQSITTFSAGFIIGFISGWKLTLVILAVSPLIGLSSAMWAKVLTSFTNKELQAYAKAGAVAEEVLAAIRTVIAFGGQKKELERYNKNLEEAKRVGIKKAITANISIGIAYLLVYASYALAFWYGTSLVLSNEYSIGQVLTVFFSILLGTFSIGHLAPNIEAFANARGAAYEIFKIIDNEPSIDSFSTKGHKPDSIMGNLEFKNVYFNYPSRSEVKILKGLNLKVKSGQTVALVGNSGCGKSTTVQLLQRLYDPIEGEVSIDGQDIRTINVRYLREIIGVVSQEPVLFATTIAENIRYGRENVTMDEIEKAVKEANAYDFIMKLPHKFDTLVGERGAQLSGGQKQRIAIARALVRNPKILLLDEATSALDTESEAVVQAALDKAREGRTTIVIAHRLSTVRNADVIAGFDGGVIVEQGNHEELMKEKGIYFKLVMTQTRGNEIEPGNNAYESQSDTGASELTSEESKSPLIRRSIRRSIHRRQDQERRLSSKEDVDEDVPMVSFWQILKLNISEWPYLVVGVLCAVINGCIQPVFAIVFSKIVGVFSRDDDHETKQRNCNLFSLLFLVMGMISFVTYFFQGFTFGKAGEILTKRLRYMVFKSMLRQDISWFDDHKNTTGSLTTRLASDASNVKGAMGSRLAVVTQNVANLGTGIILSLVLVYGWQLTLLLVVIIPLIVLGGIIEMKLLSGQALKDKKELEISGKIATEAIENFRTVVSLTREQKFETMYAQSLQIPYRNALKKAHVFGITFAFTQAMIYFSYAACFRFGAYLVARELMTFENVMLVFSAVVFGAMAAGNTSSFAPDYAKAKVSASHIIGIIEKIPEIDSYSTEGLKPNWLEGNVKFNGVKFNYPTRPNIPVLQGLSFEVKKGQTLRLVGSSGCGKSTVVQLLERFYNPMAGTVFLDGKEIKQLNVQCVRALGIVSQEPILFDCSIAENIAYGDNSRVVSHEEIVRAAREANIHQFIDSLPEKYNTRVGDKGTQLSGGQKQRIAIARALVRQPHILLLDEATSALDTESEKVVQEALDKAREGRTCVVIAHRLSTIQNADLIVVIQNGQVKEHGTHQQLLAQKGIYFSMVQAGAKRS

COc1cccc2c1C(=O)c1c(O)c3c(c(O)c1C2=O)C[C@@](O)(C(C)=O)C[C@@H]3O[C@H]1C[C@H](N)[C@H](O)[C@H](C)O1 [DAUNORUBICIN]
Activity: inducer [+]
